The values below come from patent US5760036A, “Aminediol protease inhibitors” (E. R. Squibb & Sons, Inc., priority 1995, dated 1998).

Experiment [1] relates to RF strain of HIV (CEM-SS cells). The experiment in a line: Cell Culture Anti-HIV Activity (cell viability, formazan). Format: cell-based. The following applies: Human immunodeficiency virus 1, CEM-SS, 144 h, CEM-SS cells, RF strain of HIV, multiplicity of infection 0.04, 6 days at 37° C., 450 nm; read-out: HIV (CEM Cells) IC50. In short, it runs like this:
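CEM-SS cells (5000/well) infected with HIV RF at MOI 0.04, exposed to half-log serial compound dilutions, incubated 6 days at 37° C. Viability read by tetrazolium reduction to formazan, absorbance 450 nm. IC50 is the concentration raising formazan in infected cells to 50% of uninfected, drug-free cells.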

The next experiment concerns the target T1, HIV protease (Human immunodeficiency virus type 1 group M subtype B, UniProt P04585).
T1 construct: and purified protease
The experiment in a line: HIV Protease Assay. The format is biochemical. In short, it runs like this:
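Purified protease cleaved 450 μM octapeptide substrate in 50 mM sodium acetate pH 5.5 with 100 μg/ml BSA for 30 minutes at 37° C; product analyzed by reverse-phase HPLC at UV220 after H3PO4 quench. Inhibitors tested at final 10 μM with 4% DMSO.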

The mark [2] stands for this setting: pH 5.5, 10 μM inhibitor, 4% DMSO, 450 μM substrate, pH 5.5, 30 minutes at 37° C., RP-HPLC, read-out: HIV Protease % Inhibition at 10 μM.
[3] abbreviates: pH 5.5, read-out: HIV Protease % Inhibition at 10 μM.

Structures are written as SMILES. Where two headings read alike, the source gives them in different places.

With `CC(C)(C)OC(=O)N[C@@H](Cc1ccccc1)[C@H](O)CNC[C@@H](O)[C@H](Cc1ccc(O)cc1)NC(=O)OC(C)(C)C` [Compound 21, [1S-[1R*,2S*(2S*,3R*)]]-3-[[3-[[(1,1-Dimethylethoxy)carbonyl]amino]-2-hydroxy-4-(4-hydroxyphenyl)butyl]amino]-2-hydroxy-1-(phenylmethyl)propyl]carbamic acid, 1,1-dimethylethyl ester], the IC50 in experiment [1] came to 90 nM. In addition, the inhibition at 10 µM on HIV protease (setting [2]) came out at 99%.

For the compound `CC(C)(C)OC(=O)N[C@@H](Cc1ccccc1)[C@H](O)CNC[C@@H](O)[C@H](Cc1c[nH]c2ccccc12)NC(=O)OCc1ccccc1` [Compound 22, [1S-[1R*,2S*(2S*,3R*)]]-[3-[[3-[[(1,1-Dimethylethoxy)carbonyl]amino]-2-hydroxy-4-ehenylbutyl]amino]-2-hydroxy-1-[(1H-indol-3-yl)methyl]propyl]carbamic acid, phenylmethyl ester], the 50% inhibitory concentration (IC50) in experiment [1] is above 1800 nM. The inhibition at 10 µM on HIV protease (setting [2]) was 90%.

Turning to `CC(C)(C)OC(=O)N[C@@H](Cc1ccccc1)[C@H](O)CNC[C@@H](O)[C@H](Cc1c[nH]c2ccccc12)NC(=O)OC(C)(C)C` [Compound 23, [1S-[1R*,2S*(2S*,3R*)]]-[3-[[3-[[(1,1-Dimethylethoxy)carbonyl]amino]-2-hydroxy-4-(1H-indol-3-ylmethyl)butyl]amino]-2-hydroxy-1-(phenylmethyl)propyl]carbamic acid, 1,1-dimethylethyl ester], in experiment [1], the half-maximal inhibitory concentration (IC50) stood at 450 nM. The inhibition at 10 µM at HIV protease (setting [2]) worked out at 98%.

Consider `CC(C)(C)OC(=O)N[C@@H](Cc1ccccc1)[C@H](O)CNC[C@@H](O)[C@H](CCc1ccccc1)NC(=O)OCc1ccccc1` [Compound 24, [1S-[1R*,2S*((2S*,3R*)]]-[3-[[3-[[(1,1-Dimethylethoxy)carbonyl]amino-2-hydroxy-4-phenylbutyl]amino]-2-hydroxy-1-(2-phenylethyl)propyl]carbamic acid, phenylmethyl ester], for which, in experiment [1], the IC50 came to 4500 nM. Further, at HIV protease (setting [2]), the inhibition at 10 µM stood at 78%.

In the case of `CC(C)(C)OC(=O)N[C@@H](CCc1ccccc1)[C@H](O)CNC[C@@H](O)[C@H](Cc1ccccc1)NC(=O)OC(C)(C)C` [Compound 25, [1S-[1R*,2S*(2S*,3R* )]]-[3-[[3-[[(1,1-Dimethylethoxy)carbonyl]amino]-2-hydroxy-4-phenylbutyl]amino]-2-hydroxy-1-(2-phenylethyl))propyl]carbarmic acid, 1,1-dimethylethyl ester], in experiment [1], the IC50 was found to be 530 nM. Further, the inhibition at 10 µM at HIV protease (setting [3]) is 98%.

With `CC(C)(C)OC(=O)N[C@@H](Cc1ccccc1)[C@H](O)CNC[C@@H](O)[C@H](Cc1cccc(OCc2ccccc2)c1)NC(=O)OC(C)(C)C` [Compound 28, [1S-[1R*,2S*(2S*,3R*)]]-[3-[[3-[[(1,1-Dimethylethoxy)-carbonyl]amino]-2-hydroxy-4-phenylbutyl]amino]-2-hydroxy-1-[[3-(phenylmethoxy)phenyl]methyl]propyl]carbamic acid, 1,1-dimethylethyl ester], the IC50 in experiment [1] turned out to be 90 nM. The inhibition at 10 µM on HIV protease (setting [2]) is 100%.

For `CC(C)(C)OC(=O)N[C@@H](Cc1ccccc1)[C@H](O)CNC[C@@H](O)[C@H](Cc1cccc(O)c1)NC(=O)OC(C)(C)C` [Compound 29, [1S-[1R*,2S*(2S*,3R*)]]-[3-[[3-[[(1,1-Dimethylethoxy)-carbonyl]amino]-2-hydroxy-4-(3-hydroxyphenyl)butyl]-amino]-2-hydroxy-1-(phenylmethyl)propyl]carbamic acid, 1,1-dimethylethyl ester], the half-maximal inhibitory concentration (IC50) in experiment [1] is 100 nM. For the same compound, the inhibition at 10 µM at HIV protease (setting [3]) was found to be 100%.

Turning to `CC(C)(C)OC(=O)N[C@@H](Cc1ccccc1)[C@H](O)CNC[C@@H](O)[C@H](Cc1ccncc1)NC(=O)OC(C)(C)C` [Compound 30, [1S-[1R*,2S*(2S*,3R*)]]-[3-[[3-[[(1,1-Dimethylethoxy)-carbonyl]amino]-2-hydroxy-4-phenylbutyl]amino]-2-hydroxy-1-(4-pyridinylmethyl)propyl]carbamic acid, 1,1-dimethylethyl ester], in experiment [1], the IC50 is 500 nM. For the same compound, the inhibition at 10 µM on HIV protease (setting [2]) was 97%.

On to `CC(C)(C)OC(=O)N[C@@H](Cc1ccccc1)[C@H](O)CNC[C@@H](O)[C@H](Cc1ccc2ncccc2c1)NC(=O)OC(C)(C)C` [Compound 31, [1S-[1R*,2S*(2S*,3R*)]]-[3-[[3-[[(1,1-Dimethylethoxy)-carbonyl]amino]-2-hydroxy-4-phenylbutyl]amino-2-hydroxy-1-(6-quinolinylmethyl)propyl]carbamic acid, 1,1-dimethylethyl ester], for which the IC50 in experiment [1] came out at 30 nM. In addition, the inhibition at 10 µM at HIV protease (setting [2]) was 100%.

Regarding `CC(C)[C@H](NC(=O)OC(C)(C)C)C(=O)N[C@@H](Cc1ccccc1)[C@H](O)CNC[C@@H](O)[C@H](Cc1ccccc1)NC(=O)[C@@H](NC(=O)OC(C)(C)C)C(C)C` [Compound 34, [S-(1R*,2S*)]-N,N'-[Iminobis[2-hydroxy-1-(phenylmethyl)-3,1-propanediyl]]bis[N^2-[(1,1-dimethylethoxy)carbonyl]-L-valinamide]], the IC50 in experiment [1] was above 9000 nM. Moreover, on HIV protease (setting [2]), the inhibition at 10 µM was found to be 20%.

For the compound `O=C(N[C@@H](Cc1ccccc1)[C@H](O)CNC[C@@H](O)[C@H](Cc1ccccc1)NC(=O)c1ccccc1)c1ccccc1` [Compound 36, [S-(1R*,2S*)]-N,N'-[Iminobis[2-hydroxy-1-(phenylmethyl)-3,1-propanediyl]]bisbenzamide], the IC50 in experiment [1] is above 8000 nM. In addition, on HIV protease (setting [2]), the inhibition at 10 µM was 36%.

As for `CC(C)(C)OC(=O)N[C@@H](Cc1ccccc1)C(=O)N[C@@H](Cc1ccccc1)[C@H](O)CNC[C@@H](O)[C@H](Cc1ccccc1)NC(=O)[C@H](Cc1ccccc1)NC(=O)OC(C)(C)C` [Compound 38, [S-(1R*,2S*)]-[Iminobis[2-hydroxy-1-(phenylmethyl)-3,1-propanediyl]]-bisimino-bis[N^2-[(1,1-dimethylethoxy)carbonyl]-L-phenyl-alaninamide]], the half-inhibitory concentration (IC50) in experiment [1] was above 4000 nM. Moreover, the inhibition at 10 µM at HIV protease (setting [2]) was 3%.

For the compound `CC(C)[C@H](NC(=O)OCc1ccccc1)C(=O)N[C@@H](Cc1ccccc1)[C@H](O)CNC[C@@H](O)[C@H](Cc1ccccc1)NC(=O)[C@@H](NC(=O)OCc1ccccc1)C(C)C` [Compound 42, [1S-(1R*,2S*)]-N,N'-[Iminobis[2-hydroxy-1-(phenylmethyl)-3,1-proanediyl]bis[N^2-[(phenylmethoxy)carbonyl]-L-valinamide]], in experiment [1], the 50% inhibitory concentration (IC50) worked out at 600 nM. The inhibition at 10 µM on HIV protease (setting [2]) is 100%.

For `O=C(N[C@@H](Cc1ccccc1)[C@H](O)CNC[C@@H](O)[C@H](Cc1ccccc1)NC(=O)OCc1ccccc1)OCc1ccccc1` [Compound 44, [R-(R*,S*)]-Iminobis[2-hydroxy-1-(phenylmethyl)-3,1-propandiyl]]biscarbamic acid, bis(phenylmethyl) ester], the IC50 in experiment [1] is above 5000 nM. Further, at HIV protease (setting [2]), the inhibition at 10 µM stood at 58%.

In the case of `CC(C)(C)OC(=O)N[C@@H](Cc1ccccc1)[C@H](O)CNC[C@@H](O)[C@H](Cc1ccccc1)NC(=O)OCc1ccccc1` [Compound 45, [R-(R*,S*)]-[Iminobis[2-hydroxy-1-(phenylmethyl)-3,1-propandiyl]biscarbamic acid, 1,1-dimethylethylphenylmethyl ester], the 50% inhibitory concentration (IC50) in experiment [1] was 500 nM. Also, the inhibition at 10 µM on HIV protease (setting [2]) is 87%.

On to `CC(C)(C)NC(=O)N[C@@H](Cc1ccccc1)[C@H](O)CNC[C@@H](O)[C@H](Cc1ccccc1)NC(=O)NC(C)(C)C` [Compound 47, [R-(R*,S*)]-N,N"-[Iminobis[2-hydroxy-1-(phenylmethyl)-3,1-propanediyl]]-bis[N'-(1,1-dimethylethyl)urea]], for which the half-inhibitory concentration (IC50) in experiment [1] was 1100 nM. For the same compound, the inhibition at 10 µM on HIV protease (setting [2]) turned out to be 81%.

On to `CC(C)(C)NC(=O)N[C@@H](Cc1ccccc1)[C@H](O)CNC[C@@H](O)[C@H](Cc1ccccc1)NC(=O)OC(C)(C)C` [Compound 50, [1S-[1R*,2S*(2S*,3R*)]]-[3-[[3-[[[(1,1-Dimethylethyl)amino]carbonyl]amino]-2-hydroxy-4-phenylbutyl]amino]-2-hydroxy-1-(phenylmethyl)propyl]carbamic acid, 1,1-dimethylethyl ester], for which the IC50 in experiment [1] was 220 nM. Besides, on HIV protease (setting [2]), the inhibition at 10 µM worked out at 97%.

`CC(C)[C@H](NC(=O)OCc1ccccc1)C(=O)N[C@@H](Cc1ccccc1)[C@H](O)CNC[C@@H](O)[C@H](Cc1ccccc1)NC(=O)OC(C)(C)C` [Compound 52, [S-[1R*,2S*(2S*, 3R*)]-N-[3-[[3-[[(1,1-Dimethylethoxy)carbonyl]amino]-2-hydroxy-4-phenylbutyl]-amino]-2-hydroxy-1-(phenylmethyl)propyl-N^2-[(phenylmethoxy)carbonyl]-L-valinamide]: the IC50 in experiment [1] was 200 nM. For the same compound, on HIV protease (setting [2]), the inhibition at 10 µM was 100%.

`CC(C)(C)OC(=O)N[C@@H](Cc1ccccc1)[C@H](O)CNC[C@@H](O)[C@H](Cc1ccccc1)NC(=O)[C@H](CC(N)=O)NC(=O)OCc1ccccc1` [Compound 53, [1S-[1R*,2S*(2S*3R*)]]-N-[3-[[3[[(1,1-Dimethylethoxy)-carbonyl]amino]-2-hydroxy-4-phenylbutyl]amino]-2-hydroxy-1-(phenylmethyl)propyl]-N^2 [(phenylmethoxy)-carbonyl]-L-aspartamide]: the IC50 in experiment [1] came out at 540 nM. Also, the inhibition at 10 µM on HIV protease (setting [2]) was found to be 99%.
